Data on 68 compounds can be found in ChEMBL document CHEMBL5728748 (2021).

A word on the IC50: it is the concentration needed to halve the response being measured.

SMILES strings stand for the structures.

The experiment is described as follows: TarO Biochemical Enzymatic Assay: The TarO biochemical enzymatic assay is a liquid chromatography-mass spectroscopy (LC-MS) based end point assay that measures C55-P-P-GlcNAc (LIPID III) production. The TarO biochemical enzymatic assay was performed in a 384-well microtiter plate (Labcyte) with a reaction volume of 20 μl. The reaction mix contained 0.1 μgs/μl of TarO membrane preparation derived from MRSA COL (lysostaphin/lysozyme treated, centrifuged at 40K rpm, and re-suspended in 50 mM Tris pH 7.5, 10 mM MgCl2), 1500 μM UDP-GlcNAc, x 75 μM C55-P substrates in 83 mM Tris pH 8.0, 6.7 mM MgCl2, 6 mM CHAPS, and 8.3% DMSO buffer. The enzyme reactions were quenched by extraction in 40 μl of 1-pentanol containing 0.04 μM […] C55-PP-GlcNAc, which was used as an internal standard. A 10 μl volume of the quenched reaction mixture (pH≈3) from each well was injected onto a reversed-phase column (C4, 5 m, 2.1×50 mm, Thermo Scientific Biobacis-4) and eluted using a NH4Ac/H2O/MeOH gradient (solvent A: 10 mM NH4Ac in water, pH 5.6; solvent B: NH4Ac (1 M)-Isopropanol (1:90, v/v, pH 5.6). The HPLC conditions were as follows: 15% solvent B for 15 seconds followed by a gradient to 90% solvent B in 90 seconds; then solvent B was kept at 95% for 10 seconds followed by a gradient to 8% solvent B in 0.1 minute. The column was then equilibrated at 15% B for 1 minute before the next injection. The flow rate was kept constant at 600 μl/minute. Mass spectrometric detection was carried out in the negative-ion mode using selected reaction monitoring (SRM). Typical mass spectrometric conditions were as follows: heated capillary temperature, 210° C.; spray voltage, 2500 V; desolvation gas (N2), 40 l/h; auxiliary gas (N2), 35 l/h. Selected ion current (SIC) chromatograms of C55-PP-GlcNAc and internal standard 15C C55-PP-GlcNAc were plotted and integrated using LCQuan incorporated in Xcalibur software (ThermoFinnigan). The linearity of C55-PP-GlcNAc concentration versus mass spectrometric signal (AC55-PP-GlcNAc/A15C-C55-PP-GlcNAc) was determined with purified C55-PP-GlcNAc. The IC50 values were calculated using the nonlinear regression analysis (sigmoidal dose response fit allowing for a variable slope) of percent inhibition data with minimum and maximum values set to 0 and 100 percent.
In the case of `C[C@H]1[C@@H](c2cc(F)cc(C(F)(F)F)c2)OC(=O)N1C(=O)NCc1cccc(N(C)C)c1`, the IC50 is 40 nM.

Take `C[C@H]1[C@@H](c2cccc(Br)n2)OC(=O)N1C(=O)CCc1cccc2ccccc12`: the IC50 was 480 nM.

Regarding `O=C(NCc1cncc2ccccc12)N1C(=O)O[C@H](c2cc(F)cc(C(F)(F)F)c2)[C@@H]1CCO`, the IC50 is 4770 nM.

For the compound `CCOc1cc([C@H]2OC(=O)N(C(=O)NCc3cccc4cncnc34)[C@H]2C)nc(C(F)(F)F)c1`, the IC50 was 10 nM.

Take `C[C@H]1[C@@H](c2cc(F)cc(C(F)(F)F)c2)OC(=O)N1C(=O)NCc1ccccc1-n1cccc1`: the IC50 is 450 nM.

Consider `C[C@H]1[C@@H](c2cc(F)cc(C(F)(F)F)c2)OC(=O)N1C(=O)NCc1cccc2c1OCCO2`, for which the IC50 is 50 nM.

Regarding `C[C@H]1[C@@H](c2cc(C(F)(F)F)cc(C(F)(F)F)c2)OC(=O)N1C(=O)NCc1cncc2cccnc12`, the half-inhibitory concentration (IC50) was 10 nM.

Consider `O=C(CCc1cncc2ccccc12)N1C[C@H](c2cc(C(F)(F)F)cc(C(F)(F)F)c2)OC1=O`, for which the half-maximal inhibitory concentration (IC50) was 540 nM.

Turning to `C[C@H]1[C@@H](c2cc(F)cc(C(F)(F)F)c2)OC(=O)N1C(=O)NCc1ccccc1OC(F)F`, the IC50 was 20 nM.

Turning to `C[C@H]1[C@@H](c2cc(C(F)(F)F)cc(C(F)(F)F)c2)OC(=O)N1C(=O)NCc1cncc2ccccc12`, the concentration for half-maximal inhibition (IC50) is 30 nM.

In the case of `C[C@H]1[C@@H](c2cc(C(F)(F)F)cc(C(F)(F)F)c2)OC(=O)N1C(=O)NCc1ncccc1Br`, the IC50 is 260 nM.

Consider `CCOc1ccccc1CNC(=O)N1C(=O)O[C@H](c2cc(F)cc(C(F)(F)F)c2)[C@@H]1C`, for which the IC50 was 100 nM.

As for `Cc1cccnc1CNC(=O)N1C(=O)O[C@H](c2cc(C(F)(F)F)cc(C(F)(F)F)c2)[C@@H]1C`, the IC50 is 440 nM.

Turning to `C[C@H]1[C@@H](c2cc(C(F)(F)F)cc(C(F)(F)F)c2)OC(=O)N1C(=O)CCc1cccc2ccccc12`, the IC50 is 10 nM.

`Cc1cnc(F)c(CNC(=O)N2C(=O)O[C@H](c3cc(C(F)(F)F)cc(C(F)(F)F)c3)[C@@H]2C)c1`: the IC50 is 610 nM.

In the case of `Cc1cc(F)cc([C@H]2OC(=O)N(C(=O)CCc3cncc4ccccc34)[C@H]2C)c1`, the IC50 was 1880 nM.

Consider `C[C@H]1[C@@H](c2cc(F)cc(C(F)(F)F)c2)OC(=O)N1C(=O)NCc1nccc2sccc12`, for which the IC50 was 120 nM.

Take `COc1cc(C(F)(F)F)cc([C@H]2OC(=O)N(C(=O)NCc3cncc4cccnc34)[C@H]2CO)n1`: the 50% inhibitory concentration (IC50) was 880 nM.

Take `C[C@H]1[C@@H](c2cc(F)cc(C(F)(F)F)c2)OC(=O)N1C(=O)NCc1cccc2nccnc12`: the IC50 was 190 nM.

Consider `C[C@H]1[C@@H](c2cc(F)cc(C(F)(F)F)c2)OC(=O)N1C(=O)NCc1ccccc1Cl`, for which the IC50 is 170 nM.

Consider `C[C@@H]1NN(C(=O)NCc2cncc3ccccc23)C(=O)O[C@@H]1c1cc(F)cc(C(F)(F)F)c1`, for which the IC50 is 950 nM.

Turning to `C[C@H]1[C@@H](c2cc(C(F)(F)F)cc(C(F)(F)F)c2)OC(=O)N1C(=O)CCc1cccc2sccc12`, the half-maximal inhibitory concentration (IC50) was 10 nM.

Consider `C[C@H]1[C@@H](c2cc(C(F)(F)F)cc(C(F)(F)F)c2)OC(=O)N1C(=O)NCc1nccc2ccoc12`, for which the 50% inhibitory concentration (IC50) is 150 nM.

With `COc1ccccc1CNC(=O)N1C(=O)O[C@H](c2cccc(C(F)(F)F)c2)[C@@H]1C`, the IC50 is 220 nM.

As for `C[C@H]1[C@@H](c2cc(F)cc(C(F)(F)F)c2)OC(=O)N1C(=O)NCc1ccccc1C(F)(F)F`, the half-inhibitory concentration (IC50) is 30 nM.

On to `C[C@H]1[C@@H](c2cc(F)cc(C(F)(F)F)c2)OC(=O)N1C(=O)NCc1ccccc1[N+](=O)[O-]`, for which the 50% inhibitory concentration (IC50) was 10 nM.

In the case of `Cc1nc(C)c(CNC(=O)N2C(=O)O[C@H](c3cc(F)cc(C(F)(F)F)c3)[C@@H]2C)s1`, the IC50 was 2650 nM.

As to `C[C@H]1[C@@H](c2cc(F)cc(C(F)(F)F)c2)OC(=O)N1C(=O)NCc1cccc2c1C(=O)NC2`, the IC50 was 1690 nM.

Turning to `C[C@H]1[C@@H](c2cc(C(F)(F)F)cc(C(F)(F)F)c2)OC(=O)N1C(=O)CCc1cncc2ccccc12`, the IC50 is 10 nM.

On to `C=CCOc1cc([C@H]2OC(=O)N(C(=O)NCc3cncc4ccccc34)[C@H]2C)nc(C(F)(F)F)c1`, for which the IC50 was 60 nM.

Take `C[C@H]1[C@@H](c2cccc(C(F)(F)F)c2)OC(=O)N1C(=O)NCc1cncc2ccccc12`: the IC50 was 160 nM.

Consider `C[C@H]1[C@@H](c2cc(C(F)(F)F)cc(C(F)(F)F)c2)OC(=O)N1C(=O)COc1cccc2ccccc12`, for which the 50% inhibitory concentration (IC50) was 40 nM.

For `C[C@H]1[C@@H](c2cc(N3CCC(F)(F)C3)cc(C(F)(F)F)c2)OC(=O)N1C(=O)NCc1cccc2cncnc12`, the 50% inhibitory concentration (IC50) is 260 nM.

In the case of `Cc1cccc(OCC(=O)N2C(=O)O[C@H](c3cccc(C(F)(F)F)c3)[C@@H]2C)c1C`, the IC50 is 680 nM.

Take `C[C@H]1[C@@H](c2cc(F)cc(C(F)(F)F)c2)OC(=O)N1C(=O)NCc1ccccc1CN(C)C`: the IC50 is 690 nM.

In the case of `O=C(NCc1cccc2cncnc12)N1C(=O)O[C@H](c2cc(C(F)(F)F)cc(C(F)(F)F)c2)[C@@H]1CO`, the concentration for half-maximal inhibition (IC50) was 80 nM.

`O=C(NCc1cncc2ccccc12)N1C(=O)O[C@H](c2cc(F)cc(C(F)(F)F)c2)[C@@H]1CO`: the IC50 is 210 nM.

Consider `C[C@H]1[C@@H](c2cc(F)cc(C(F)(F)F)c2)OC(=O)N1C(=O)CCc1cncc2ccccc12`, for which the concentration for half-maximal inhibition (IC50) is 80 nM.

As to `CC[C@H]1[C@@H](c2cc(C(F)(F)F)cc(C(F)(F)F)c2)OC(=O)N1C(=O)CCc1cncc2ccccc12`, the half-maximal inhibitory concentration (IC50) is 60 nM.

As for `COc1cc([C@H]2OC(=O)N(C(=O)NCc3cncc4cccnc34)C[C@H]2C)cc(C(F)(F)F)c1`, the concentration for half-maximal inhibition (IC50) was 1260 nM.

Consider `C[C@H]1[C@@H](c2cccc(C(F)(F)F)c2)OC(=O)N1C(=O)NCc1cncc2cccnc12`, for which the concentration for half-maximal inhibition (IC50) is 130 nM.

Turning to `COc1cc([C@H]2OC(=O)N(C(=O)NCc3cccc4cncnc34)[C@H]2CO)cc(C(F)(F)F)c1`, the IC50 is 870 nM.

In the case of `C[C@H]1[C@@H](c2cc(C(F)(F)F)cc(C(F)(F)F)c2)OC(=O)N1C(=O)NCc1cccc2c1OCCO2`, the IC50 is 10 nM.

Turning to `COc1ccncc1CNC(=O)N1C(=O)O[C@H](c2cc(C(F)(F)F)cc(C(F)(F)F)c2)[C@@H]1CO`, the 50% inhibitory concentration (IC50) is 200 nM.

As to `C[C@H]1[C@@H](c2cc(F)cc(C(F)(F)F)c2)OC(=O)N1C(=O)NCc1cncc2ccccc12`, the half-inhibitory concentration (IC50) is 10 nM.

For `C[C@H]1[C@@H](c2cc(F)cc(C(F)(F)F)c2)OC(=O)N1C(=O)NCc1ccccc1S(C)(=O)=O`, the concentration for half-maximal inhibition (IC50) was 2970 nM.

For `COc1cc([C@H]2OC(=O)N(C(=O)NCc3cccc4nccnc34)[C@H]2CO)cc(C(F)(F)F)c1`, the IC50 was 450 nM.

As for `C[C@H]1[C@@H](c2cccc(OC(F)(F)F)c2)OC(=O)N1C(=O)CCc1cccc2ccccc12`, the IC50 was 40 nM.

As for `C[C@H]1[C@@H](c2cc(C(F)(F)F)cc(C(F)(F)F)c2)OC(=O)N1C(=O)NCc1cccc2ccnn12`, the IC50 was 10 nM.

With `O=C(CCc1cncc2ccccc12)N1CC(c2cc(C(F)(F)F)cc(C(F)(F)F)c2)OC1=O` (stereo not drawn), the half-inhibitory concentration (IC50) is 420 nM.

With `COc1cccc([C@H]2OC(=O)N(C(=O)CCc3cncc4ccccc34)[C@H]2C)c1`, the half-maximal inhibitory concentration (IC50) is 1200 nM.

For `Cc1nc(C(C)C)sc1CNC(=O)N1C(=O)O[C@H](c2cc(F)cc(C(F)(F)F)c2)[C@@H]1C`, the IC50 was 160 nM.

Take `C[C@H]1[C@@H](c2cccc(C(C)(F)F)c2)OC(=O)N1C(=O)NCc1cncc2ccccc12`: the IC50 was 250 nM.

Take `COc1cncc(CNC(=O)N2C(=O)O[C@H](c3cc(C(F)(F)F)cc(C(F)(F)F)c3)[C@@H]2CO)c1OC`: the IC50 is 30 nM.

`C[C@H]1[C@@H](c2cccc(C(F)F)c2)OC(=O)N1C(=O)NCc1cncc2ccccc12`: the IC50 is 490 nM.

Regarding `COc1cc([C@H]2OC(=O)N(C(=O)NCc3cncc4ccccc34)[C@H]2CO)cc(C(F)(F)F)c1`, the IC50 was 200 nM.

With `C[C@H]1[C@@H](c2cc(F)cc(Br)c2)OC(=O)N1C(=O)NCc1cncc2ccccc12`, the 50% inhibitory concentration (IC50) was 240 nM.

Turning to `C[C@H]1[C@@H](c2cc(C(F)(F)F)cc(C(F)(F)F)c2)OC(=O)N1C(=O)CCc1cccc2ncccc12`, the IC50 was 250 nM.

For the compound `C[C@H]1[C@@H](c2cc(C(F)(F)F)ccn2)OC(=O)N1C(=O)CCc1cncc2ccccc12`, the concentration for half-maximal inhibition (IC50) is 6980 nM.

For `C[C@H]1[C@@H](c2cc(C(F)(F)F)cc(C(F)(F)F)c2)OC(=O)N1C(=O)NCc1cccnc1N1CCOCC1`, the concentration for half-maximal inhibition (IC50) is 3610 nM.

Take `C[C@H]1[C@@H](c2cc(Br)cc(C(F)(F)F)c2)OC(=O)N1C(=O)CCc1cncc2ccccc12`: the IC50 is 1490 nM.

Regarding `O=C(NCc1cncc2cccnc12)N1C(=O)O[C@H](c2cc(C(F)(F)F)cc(C(F)(F)F)c2)[C@@H]1CO`, the concentration for half-maximal inhibition (IC50) is 140 nM.

Turning to `C[C@H]1[C@@H](c2cc(F)cc(C(F)(F)F)c2)OC(=O)N1C(=O)NCc1cccc2cn[nH]c12`, the IC50 is 1420 nM.

In the case of `C[C@H]1[C@@H](c2cc(C(F)(F)F)cc(C(F)(F)F)c2)OC(=O)N1C(=O)CCc1cccc2ccncc12`, the IC50 was 410 nM.

Regarding `C[C@H]1[C@@H](c2cc(F)cc(C(F)(F)F)c2)OC(=O)N1C(=O)NCc1cnc2sccn12`, the IC50 was 77000 nM.

In the case of `C[C@H]1[C@@H](c2cc(F)c(F)c(F)c2)OC(=O)N1C(=O)CCc1cncc2ccccc12`, the IC50 was 1810 nM.

Turning to `COc1ccccc1CNC(=O)N1C(=O)O[C@H](c2cc(F)cc(C(F)(F)F)c2)[C@@H]1C`, the IC50 was 30 nM.

Take `C[C@H]1[C@@H](c2cc(F)cc(C(F)(F)F)c2)OC(=O)N1C(=O)NCc1ccnc2ccccc12`: the IC50 is 200 nM.
